Source: publication PMC11184370 (RSC Advances, 2024)
Where two headings read alike, the source gives them in different places.

Key:
[1] = tested on: MCF7 breast carcinoma cells; assay: MTT in vitro cytotoxicity, MCF7; assay type: cell-based, human; conditions: for Selective index (SI), MCF7: vs WI38; for IC50: read-out: In vitro cytotoxicity IC50, MCF7
ctDNA [2] = assay: UV-visible absorption titration with ctDNA; assay type: binding, calf thymus; conditions: Tris–HCl buffer pH 7.2
[3] = molecular target: T1, Bovine serum albumin (BSA) (Bos taurus, UniProt P02769); assay: BSA fluorescence quenching; assay type: binding; conditions: λmax = 345 nm; for Quenching rate constant (Kq), BSA emission: τ0 = 10^−8 s
T1 sequence (P02769 25-607): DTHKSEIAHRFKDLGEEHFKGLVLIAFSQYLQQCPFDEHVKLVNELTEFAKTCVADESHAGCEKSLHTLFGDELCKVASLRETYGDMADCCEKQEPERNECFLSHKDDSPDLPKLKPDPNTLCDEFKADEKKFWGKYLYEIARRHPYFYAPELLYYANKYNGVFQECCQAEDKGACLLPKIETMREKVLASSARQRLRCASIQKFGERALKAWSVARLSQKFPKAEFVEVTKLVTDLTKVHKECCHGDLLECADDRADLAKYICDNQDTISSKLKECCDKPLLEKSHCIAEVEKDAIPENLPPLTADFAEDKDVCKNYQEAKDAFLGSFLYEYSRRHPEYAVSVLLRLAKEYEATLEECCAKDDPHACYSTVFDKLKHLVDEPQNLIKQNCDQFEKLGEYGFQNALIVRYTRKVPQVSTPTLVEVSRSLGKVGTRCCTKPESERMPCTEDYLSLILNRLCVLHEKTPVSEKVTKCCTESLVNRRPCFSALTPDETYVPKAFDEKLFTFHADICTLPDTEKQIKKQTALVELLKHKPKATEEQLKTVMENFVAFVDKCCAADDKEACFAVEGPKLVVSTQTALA

[4] = molecular target: T1, Bovine serum albumin (BSA); assay: BSA absorption titration; assay type: binding; conditions: λmax = 278 nm
[5] = Solution stability by UV-visible spectroscopy in PBS; assay type: physicochemical; conditions: PBS pH 7.2 / DMSO, 2.5 × 10^−5 M, up to 48 h
ctDNA [6] = assay: Ethidium bromide displacement, fluorescence quenching of EB-ctDNA adduct; assay type: binding, calf thymus; conditions: λem = 580 nm; for Quenching constant (Ksv), emission spectroscopy, ctDNA: EB 5 μM, DNA 50 μM, [Q] 10–200 μM
tRNA [7] = assay: Ethidium bromide displacement, fluorescence quenching of EB-tRNA adduct; assay type: binding, yeast; conditions: λem = 580 nm; for Quenching constant (Ksv), emission spectroscopy, tRNA: EB 5 μM, RNA 50 μM, [Q] 10–200 μM
[8] = tested on: HeLa cervical carcinoma cells; assay: MTT in vitro cytotoxicity, HeLa; assay type: cell-based, human; conditions: for Selective index (SI), HeLa: vs WI38; for IC50: read-out: In vitro cytotoxicity IC50, HeLa
tRNA [9] = assay: UV-visible absorption titration with tRNA; assay type: binding, yeast; conditions: Tris–HCl buffer pH 7.2
[10] = tested on: WI38 normal lung fibroblast cells; assay: MTT in vitro cytotoxicity, WI38; assay type: cell-based, human; conditions: read-out: In vitro cytotoxicity IC50, WI38
[11] = tested on: HeLa cervical carcinoma cells; conditions: read-out: In vitro cytotoxicity IC50, HeLa; 48 h ref [85]; cited from earlier work
[12] = tested on: MCF7 breast carcinoma cells; conditions: read-out: In vitro cytotoxicity IC50, MCF7; 24 h ref [84]; cited from earlier work
HeLa cells [13] = assay: Cell cycle distribution by flow cytometry; assay type: cell-based, human; conditions: IC50 concentration, 24 h, control 20.3%
HeLa cells [14] = assay: Annexin V/propidium iodide flow cytometry; assay type: cell-based, human; conditions: IC50, 24 h

| Molecule | Selective index (SI), MCF7 ([1]; 24 h) | IC50 ([1]; 24 h) [µM] | IC50 ([1]; 48 h) [µM] | % H* (hypochromism), absorption spectroscopy, ctDNA (ctDNA [2]) [%] | % hypo, BSA emission spectroscopy [3] [%] | Number of binding sites (n), BSA emission [3] | Stern–Volmer quenching constant (Ksv), BSA emission [3] | Quenching rate constant (Kq), BSA emission [3] [M⁻¹ s⁻¹] | % hyper (hyperchromism), BSA absorption spectroscopy [4] [%] | Solution stability (changes of UV-visible spectrum with time) [5] | % H, emission spectroscopy, ctDNA (ctDNA [6]) [%] | Quenching constant (Ksv), emission spectroscopy, ctDNA (ctDNA [6]) | % H, emission spectroscopy, tRNA (tRNA [7]) [%] | Quenching constant (Ksv), emission spectroscopy, tRNA (tRNA [7]) | Selective index (SI), HeLa ([8]; 24 h) | Selective index (SI), HeLa ([8]; 48 h) | IC50 ([8]; 24 h) [µM] | IC50 ([8]; 48 h) [µM] | % H* (hypochromism), absorption spectroscopy, tRNA (tRNA [9]) [%] | IC50 ([10]; 24 h) [µM] | other results |
| --- | --- | --- | --- | --- | --- | --- | --- | --- | --- | --- | --- | --- | --- | --- | --- | --- | --- | --- | --- | --- | --- |
| 3-acetylcoumarin benzoylhydrazone [HL] | 1.74 | 40.8 ± 2.6 | 36.8 ± 2.4 | 8.35 | 27.18 | 0.93 | 2.33 × 10^4 | 2.33e+12 | 39.03 | insignificant changes up to the first 3 h then suffered hydrolysis in the aqueous media through the next 24 h | 32.4 | 0.34 ×10^4 | 26.1 | 1.19 ×10^4 | 1.15 | 1.57 | 61.6 ± 3.1 | 47.6 ± 2.9 | 7.20 | 71.1 ± 3.4 | Selective index (SI), MCF7 ([1]; 48 h): 2.03; IC50 ([10]; 48 h): 75 ± 3.5 µM |
| N.N.[Cl][Pt][Cl] [Cisplatin, cis-platin] | – | – | – | – | – | – | – | – | – | – | – | – | – | – | – | – | – | – | – | – | IC50 [11]: 67.6 ± 2 µM; IC50 [12]: 31.2 ± 1.8 µM |
| [Ag(HL)2]NO3 [Complex C3] | 1.28 | 58.8 ± 2.9 | 54 ± 3 | 6.81 | 35.69 | 0.92 | 4.98 × 10^4 | 4.98e+12 | 40.74 | slight decrease in absorption intensity | 50.1 | 0.52 ×10^4 | 26.9 | 1.6 ×10^4 | 1.93 | 1.95 | 39.1 ± 2.5 | 32.5 ± 2.3 | 6.66 | 75.4 ± 3.6 | IC50 ([10]; 48 h): 63.6 ± 3.3 µM |
| [Pt(HL)Cl]Cl [Complex C2] | 2.39 | 12.3 ± 0.9 | 8.61 ± 0.6 | 10.4 | 42.63 | 1.03 | 5.39 × 10^4 | 5.39e+12 | 11.90 | insignificant changes during the 48 h test | 54.2 | 1.42 ×10^4 | 48.8 | 4.51 ×10^4 | 3.63 | 4.95 | 8.12 ± 0.7 | 6.31 ± 0.4 | 7.60 | 29.5 ± 2.2 | Selective index (SI), MCF7 ([1]; 48 h): 3.63; Cells in G2/M phase (HeLa cells [13]): 20.3%; Change of necrotic cells compared to untreated HeLa cells (HeLa cells [14]): 1.6 fold; IC50 ([10]; 48 h): 31.3 ± 2.2 µM |
